Data published in patent US8134015B2, “Compound inhibiting in vivo phosphorous transport and medicine containing the same” (Kyowa Hakko Kirin Co., Ltd., priority 2003, dated 2012).
pIC50: −log10 of the molar value. Where a name gives a salt, the structure may show the parent alone.

Each compound was assayed against T1, rat NaPi-2b (Rattus norvegicus, UniProt Q9JJ09) (assay: Sodium-dependent phosphate uptake of Xenopus oocytes which expressed NaPi-2b (32P)). Settings: Xenopus oocytes expressing rat NaPi-2b, 32P radioactive phosphorus; read-out: IC50 (phosphate uptake inhibitory activity).
T1 construct: expressed in transfected cells; host or cells: Xenopus oocytes injected with cRNA
T1 sequence (Q9JJ09 1-695): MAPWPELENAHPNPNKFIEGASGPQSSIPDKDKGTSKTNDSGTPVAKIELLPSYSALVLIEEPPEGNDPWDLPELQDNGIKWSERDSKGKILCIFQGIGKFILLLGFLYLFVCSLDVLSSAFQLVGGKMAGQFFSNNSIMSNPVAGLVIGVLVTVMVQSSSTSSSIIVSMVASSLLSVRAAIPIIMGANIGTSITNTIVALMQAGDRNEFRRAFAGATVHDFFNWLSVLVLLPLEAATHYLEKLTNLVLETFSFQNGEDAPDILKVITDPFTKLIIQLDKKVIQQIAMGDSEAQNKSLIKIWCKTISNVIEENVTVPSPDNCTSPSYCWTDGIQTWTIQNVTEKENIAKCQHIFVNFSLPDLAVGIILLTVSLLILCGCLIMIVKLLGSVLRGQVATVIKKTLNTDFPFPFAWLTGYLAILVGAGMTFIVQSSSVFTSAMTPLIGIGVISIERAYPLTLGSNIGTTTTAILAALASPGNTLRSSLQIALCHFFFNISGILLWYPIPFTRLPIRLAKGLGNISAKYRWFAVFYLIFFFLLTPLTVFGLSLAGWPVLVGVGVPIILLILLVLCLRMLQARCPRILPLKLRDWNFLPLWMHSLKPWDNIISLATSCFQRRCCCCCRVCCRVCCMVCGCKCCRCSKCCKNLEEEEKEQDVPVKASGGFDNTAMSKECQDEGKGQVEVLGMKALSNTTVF
Format: cell-based
Outline: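 Steps: rat NaPi-2b cDNA cloned from small intestine; cRNA made and injected into oocytes; 2-day expression; 32P phosphate uptake with compound; % inhibition at 300/100 μM taken from one curve.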

SMILES	pIC50
CCN(CC)CCN(C)Cc1cccc(C(=O)Nc2ccc(OCC3CCCCC3)cc2C(=O)N/N=C/c2ccc(C)c(C)c2)c1 [Compound 1048, N-[4-Cyclohexylmethoxy-2-(3,4-dimethyl-benzylidene-hydrazinocarbonyl)-phenyl]-3-{[(2-diethylamino-ethyl)-methyl-amino]-methyl}-benzamide]	> 6.00
O=C(Nc1ccc(Br)cc1C(=O)N/N=C/c1ccc(Cl)c(C(F)(F)F)c1)c1ccc(CSCCO)cc1 [Compound 266, N-[4-Bromo-2-(4-chloro-3-trifluoromethyl-benzylidene-hydrazinocarbonyl)-phenyl]-4-(2-hydroxy-ethylsulfanylmethyl)-benzamide]	> 6.00
CCN(CC)CCN(CCN(CC)CC)Cc1cccc(C(=O)Nc2ccc(N3CCCCC3)cc2C(=O)N/N=C/c2ccc(OC)cc2)c1 [Compound 910, 3-{[Bis-(2-diethylamino-ethyl)-amino]-methyl}-N-[2-(4-methoxy-benzylidene-hydrazinocarbonyl)-4-piperidin-1-yl-phenyl]-benzamide]	5.11
O=C(Nc1ccccc1C(=O)N/N=C/c1cccc(F)c1)c1cccc(F)c1 [Compound 81, 3-Fluoro-N-[2-(3-fluoro-benzylidene-hydrazinocarbonyl)-phenyl]-benzamide]	5.25
COc1ccc(/C=N/NC(=O)c2c(NC(=O)c3cccc(CN4CCN(CCO)CC4)c3)sc3c2CCCC3)cc1 [Compound 626, 3-[4-(2-Hydroxy-ethyl)-piperazin-1-ylmethyl]-N-[3-(4-methoxy-benzylidene-hydrazinocarbonyl)-4,5,6,7-tetrahydro-benzo-[b]thiophen-2-yl]-benzamide]	> 5.52
Cc1ccc(/C=N/NC(=O)c2cc(Cl)ccc2NC(=O)c2cccc(CSCCS(=O)(=O)O)c2)cc1C [Compound 694, 2-{3-[4-Chloro-2-(3,4-dimethyl-benzylidene-hydrazinocarbonyl)-phenylcarbamoyl]-benzylsulfanyl}-ethanesulfonic acid]	4.41
Cc1ccc(/C=N/NC(=O)c2cc(Br)ccc2NC(=O)c2cccc(C[S+]([O-])CCO)c2)cc1 (stereo not shown) [Compound 677, N-[4-Bromo-2-(4-methyl-benzylidene-hydrazinocarbonyl)-phenyl]-3-(2-hydroxy-ethanesulfinylmethyl)-benzamide]	> 5.52
Cc1ccc(/C=N/NC(=O)c2cc(Br)ccc2NC(=O)c2ccno2)cc1C [Compound 512, Isoxazole-5-carboxylic acid [4-bromo-2-(3,4-dimethyl-benzylidene-hydrazinocarbonyl)-phenyl]-amide]	4.55
Cc1ccc(/C=N/NC(=O)c2ccccc2NC(=O)c2ccccn2)cc1C [Compound 507, Pyridin-2-carboxylic acid [2-(3,4-dimethyl-benzylidene-hydrazinocarbonyl)-phenyl]-amide]	5.73
CCN(CC)CCN(C)Cc1cccc(C(=O)Nc2sc3c(c2C(=O)N/N=C/c2ccc(OC(F)(F)F)cc2)CCCC3)c1 [Compound 1001, 3-{[(2-Diethylamino-ethyl)-methyl-amino]-methyl}-N-[3-(4-trifluoromethoxy-benzylidene-hydrazinocarbonyl)-4,5,6,7-tetrahydro-benzo[b]thiophen-2-yl]-benzamide]	> 5.52
COc1ccc(C(=O)Nc2cc(Cl)ccc2C(=O)N/N=C/c2cccc(F)c2)cc1OC [Compound 71, N-[5-Chloro-2-(3-fluoro-benzylidene-hydrazinocarbonyl)-phenyl]-3,4-dimethoxy-benzamide]	4.91
COc1cc(/C=N/NC(=O)c2cc(N3CCCCC3)ccc2NC(=O)c2ccc(OC)c(OC)c2)ccc1O [Compound 938, N-[2-(4-Hydroxy-3-methoxy-benzylidene-hydrazinocarbonyl)-4-piperidin-1-yl-phenyl]-3,4-dimethoxy-benzamide]	5.85
COc1cccc(/C=N/NC(=O)c2ccccc2NC(=O)c2ccc(OC)c(OC)c2)c1 [Compound 5, 3,4-Dimethoxy-N-[2-(3-methoxy-benzylidene-hydrazinocarbonyl)-phenyl]-benzamide]	5.48
CCN(CC)CCN(CCN(CC)CC)Cc1cccc(C(=O)Nc2sc3c(c2C(=O)N/N=C/c2ccc(Cl)c(C(F)(F)F)c2)CCCC3)c1 [Compound 855, 3-{[Bis-(2-diethylamino-ethyl)-amino]-methyl}-N-[3-(4-chloro-3-trifluoromethyl-benzylidene-hydrazinocarbonyl)-4,5,6,7-tetrahydro-benzo[b]thiophen-2-yl]-benzamide; hydrochloride]	5.76
COc1cccc(/C=N/NC(=O)c2cc(Br)ccc2NC(=O)c2ccc(CN3CCC(CO)CC3)cc2)c1 [Compound 339, N-[4-Bromo-2-(3-methoxy-benzylidene-hydrazinocarbonyl)-phenyl]-4-(4-hydroxymethyl-piperidin-1-ylmethyl)-benzamide]	4.89
O=C(Nc1ccc(Cl)cc1C(=O)N/N=C/c1ccc(F)cc1)c1cccc(CSCc2ccco2)c1 [Compound 681, N-[4-Chloro-2-(4-fluoro-benzylidene-hydrazinocarbonyl)-phenyl]-3-(furan-2-ylmethylsulfanylmethyl)-benzamide]	4.59
CCN(CC)CCN(CCN(CC)CC)Cc1cccc(C(=O)Nc2scc(C)c2C(=O)N/N=C/c2ccc(OC)cc2)c1 [Compound 843, 3-{[Bis-(2-diethylamino-ethyl)-amino]-methyl}-N-[3-(4-methoxy-benzylidene-hydrazinocarbonyl)-4-methyl-thiophen-2-yl]-benzamide]	5.38
CCN(CC)CCN(C)Cc1cccc(C(=O)Nc2ccc(OCC3CCCCC3)cc2C(=O)N/N=C/c2ccc(OC)cc2)c1 [Compound 1050, N-[4-Cyclohexylmethoxy-2-(4-methoxy-benzylidene-hydrazinocarbonyl)-phenyl]-3-{[(2-diethylamino-ethyl)-methyl-amino]-methyl}-benzamide]	5.85
O=C(Nc1ccc(I)cc1C(=O)N/N=C/c1cccc(F)c1)c1cccc(CN2CCC(N3CCCCC3)CC2)c1 [Compound 482, 3-[1,4′]Bipiperidinyl-1′-ylmethyl-N-[2-(3-fluoro-benzylidene-hydrazinocarbonyl)-4-iodo-phenyl]-benzamide]	> 5.52
Cc1cccc(/C=N/NC(=O)c2cc(Br)ccc2NC(=O)c2cccc(CSc3nc[nH]n3)c2)c1 [Compound 269, N-[4-Bromo-2-(3-methyl-benzylidene-hydrazinocarbonyl)-phenyl]-3-(1H-[1,2,4]triazol-3-ylsulfanylmethyl)-benzamide]	5.66
Cc1ccc(/C=N/NC(=O)c2cc(Br)ccc2NC(=O)c2cccc(CSc3ccncc3)c2)cc1C [Compound 199, N-[4-Bromo-2-(3,4-dimethyl-benzylidene-hydrazinocarbonyl)-phenyl]-3-(pyridin-4-ylsulfanylmethyl)-benzamide]	5.74
Cc1ccc(/C=N/NC(=O)c2cc(Br)ccc2NC(=O)c2cccnc2)cc1 [Compound 175, N-[4-Bromo-2-(4-methyl-benzylidene-hydrazinocarbonyl)-phenyl]-nicotinamide]	5.45
Cc1ccc(/C=N/NC(=O)c2c(NC(=O)c3cccc(CN4CCC(CO)CC4)c3)sc3ccccc23)cc1 [Compound 799, 3-(4-Hydroxymethyl-piperidin-1-ylmethyl)-N-[3-(4-methyl-benzylidene-hydrazinocarbonyl)-benzo[b]thiophen-2-yl]-benzamide]	5.43
Cc1ccc(/C=N/NC(=O)c2cc(Br)ccc2NC(=O)c2ccc(CSc3ccncc3)cc2)cc1C [Compound 259, N-[4-Bromo-2-(3,4-dimethyl-benzylidene-hydrazinocarbonyl)-phenyl]-4-(pyridin-4-ylsulfanylmethyl)-benzamide]	> 5.52

Same assay, conditions: phosphate uptake, oocytes expressing rat NaPi-2b; 300 μM, determined from inhibition curve

SMILES	inhibition at 300 µM [%]
O=c1c2cc(Cl)ccc2nc(-c2cccc(CSCCS(=O)(=O)O)c2)n1/N=C/c1ccc(Cl)c(C(F)(F)F)c1 [Compound 703, 2-(3-{6-Chloro-3-[(4-chloro-3-trifluoromethyl-benzylidene)-amino]-4-oxo-3,4-dihydro-quinazolin-2-yl}-benzylsulfanyl)-ethanesulfonic acid]	57.9
COc1ccc(C(=O)Nc2ccccc2C(=O)N/N=C/c2ccc(-c3ccccc3)cc2)cc1OC [Compound 233, N-[2-(Biphenyl-4-ylmethylene-hydrazinocarbonyl)-phenyl]-3,4-dimethoxy-benzamide]	33.6
Cc1cccc(/C=N/NC(=O)c2cc(Br)ccc2NC(=O)c2ccc(CSc3cccc(F)c3)cc2)c1 [Compound 357, N-[4-Bromo-2-(3-methyl-benzylidene-hydrazinocarbonyl)-phenyl]-4-(3-fluoro-phenylsulfanylmethyl)-benzamide]	65.8
CCN(CC)CCNCc1cccc(C(=O)Nc2c(C)csc2C(=O)N/N=C/c2ccc(Cl)c(C(F)(F)F)c2)c1 [Compound 539, N-[2-(4-Chloro-3-trifluoromethyl-benzylidene-hydrazinocarbonyl)-4-methyl-thiophen-3-yl]-3-[(2-diethylamino-ethylamino)-methyl]-benzamide]	88.4
